Numbers after ± are expanded uncertainties.
How the values were obtained:
[1] = xn = mol fraction of the nth substance listed; details: 101 kPa, Liquid, x2 = 0; for mass density: Vibrating tube method; for speed of sound: sound velocity cell
[2] = Liquid; for mass density: Vibrating tube method; for speed of sound: sound velocity cell

O [water] + CC(=O)[O-].[NH3+]CCO
[1]
Details	mass density [kg/m3]	speed of sound [m/s]
290.65 K	998.68 ± 0.068	1474.7 ± 1
295.65 K	997.65 ± 0.068	1489.9 ± 1
300.65 K	996.37 ± 0.069	1503.4 ± 1
305.65 K	994.86 ± 0.069	1515.1 ± 1
310.65 K	993.15 ± 0.07	1525 ± 1
313.15 K	–	1529.3 ± 1
315.15 K	991.24 ± 0.07	–
315.65 K	–	1533.2 ± 1
318.15 K	–	1536.6 ± 1
320.65 K	989.15 ± 0.071	1539.6 ± 1
323.15 K	988.04 ± 0.071	1542.1 ± 1

CO [methanol] + CC(=O)[O-].[NH3+]CCO
[1]
Details	mass density [kg/m3]	speed of sound [m/s]
288.15 K	796.694 ± 0.14	1136.3 ± 1.1
290.65 K	793.768 ± 0.14	1127.7 ± 1.1
293.15 K	791.418 ± 0.14	1119.5 ± 1.1
295.65 K	789.066 ± 0.14	1111.3 ± 1.1
298.15 K	786.71 ± 0.14	1103 ± 1.1
300.65 K	784.349 ± 0.14	1094.7 ± 1.1
303.15 K	781.983 ± 0.14	1086.5 ± 1.1
305.65 K	779.612 ± 0.14	1078.3 ± 1.1
308.15 K	777.234 ± 0.14	1070.2 ± 1.1
310.65 K	774.851 ± 0.14	1062.1 ± 1.1
313.15 K	772.458 ± 0.14	1054 ± 1.1
315.65 K	770.058 ± 0.15	1045.9 ± 1.1
318.15 K	767.647 ± 0.15	1037.9 ± 1.1
320.65 K	765.229 ± 0.15	1029.9 ± 1.1
323.15 K	762.809 ± 0.15	1022 ± 1.1

CCO [ethanol]
[2], 101 kPa
Details	mass density [kg/m3]	speed of sound [m/s]
288.15 K	793.828 ± 0.14	1177.8 ± 1.1
290.65 K	791.692 ± 0.14	1169.2 ± 1.1
293.15 K	789.553 ± 0.14	1160.6 ± 1.1
295.65 K	787.411 ± 0.14	1152 ± 1.1
298.15 K	785.261 ± 0.14	1143.5 ± 1.1
300.65 K	783.106 ± 0.14	1135 ± 1.1
303.15 K	780.944 ± 0.14	1126.5 ± 1.1
305.65 K	778.773 ± 0.14	1118.1 ± 1.1
308.15 K	776.593 ± 0.14	1109.7 ± 1.1
310.65 K	774.405 ± 0.14	1101.2 ± 1.1
313.15 K	772.204 ± 0.14	1092.8 ± 1.1
315.65 K	769.995 ± 0.14	1084.5 ± 1.1
318.15 K	767.77 ± 0.15	1076.2 ± 1.1
320.65 K	765.534 ± 0.15	1067.9 ± 1.1
323.15 K	763.296 ± 0.15	1059.6 ± 1.1

CO [methanol]
[2], 101 kPa
Details	mass density [kg/m3]	speed of sound [m/s]
288.15 K	796.694 ± 0.14	1136.3 ± 1.1
290.65 K	793.768 ± 0.14	1127.7 ± 1.1
293.15 K	791.418 ± 0.14	1119.5 ± 1.1
295.65 K	789.066 ± 0.14	1111.3 ± 1.1
298.15 K	786.71 ± 0.14	1103 ± 1.1
300.65 K	784.349 ± 0.14	1094.7 ± 1.1
303.15 K	781.983 ± 0.14	1086.5 ± 1.1
305.65 K	779.612 ± 0.14	1078.3 ± 1.1
308.15 K	777.234 ± 0.14	1070.2 ± 1.1
310.65 K	774.851 ± 0.14	1062.1 ± 1.1
313.15 K	772.458 ± 0.14	1054 ± 1.1
315.65 K	770.058 ± 0.15	1045.9 ± 1.1
318.15 K	767.647 ± 0.15	1037.9 ± 1.1
320.65 K	765.229 ± 0.15	1029.9 ± 1.1
323.15 K	762.809 ± 0.15	1022 ± 1.1

CC(=O)[O-].[NH3+]CCO [2-hydroxyethylammonium acetate]
[2]
Details	mass density, 101 kPa [kg/m3]	mass density, 101.33 kPa [kg/m3]	speed of sound, 101 kPa [m/s]	speed of sound, 101.33 kPa [m/s]
288.15 K	1154.7 ± 2.6	–	1817.2 ± 3.2	–
290.65 K	1153.28 ± 2.6	–	1810 ± 3.2	–
293.15 K	1151.87 ± 2.5	–	1803.2 ± 3.2	–
295.65 K	1150.45 ± 2.5	–	1796.8 ± 3.2	–
298.15 K	–	1149.04 ± 2.5	1790.7 ± 3.2	1790.7 ± 3
300.65 K	1147.63 ± 2.5	–	1784.8 ± 3.2	–
303.15 K	1146.22 ± 2.5	–	1779 ± 3.2	–
305.65 K	1144.8 ± 2.5	–	1773.4 ± 3.2	–
308.15 K	1143.39 ± 2.5	–	1767.9 ± 3.2	–
310.65 K	1141.96 ± 2.5	–	1762.5 ± 3.2	–
313.15 K	1140.55 ± 2.5	–	1757.2 ± 3.2	–
315.15 K	1139.18 ± 2.5	–	–	–
315.65 K	1139.18 ± 2.5	–	1751.9 ± 3.2	–
318.15 K	1137.82 ± 2.5	–	1746.5 ± 3.2	–
320.65 K	1136.45 ± 2.5	–	1741.3 ± 3.2	–
323.15 K	1135.08 ± 2.5	–	1736 ± 3.2	–

O [water]
[2], 101 kPa
Details	mass density [kg/m3]	speed of sound [m/s]
290.65 K	998.68 ± 0.068	1474.7 ± 1
295.65 K	997.65 ± 0.068	1489.9 ± 1
300.65 K	996.37 ± 0.069	1503.4 ± 1
305.65 K	994.86 ± 0.069	1515.1 ± 1
310.65 K	993.15 ± 0.07	1525 ± 1
313.15 K	–	1529.3 ± 1
315.15 K	991.24 ± 0.07	–
315.65 K	–	1533.2 ± 1
318.15 K	–	1536.6 ± 1
320.65 K	989.15 ± 0.071	1539.6 ± 1
323.15 K	988.04 ± 0.071	1542.1 ± 1

CCO [ethanol] + CC(=O)[O-].[NH3+]CCO
[1]
Details	mass density [kg/m3]	speed of sound [m/s]
288.15 K	793.828 ± 0.14	1177.8 ± 1.1
290.65 K	791.692 ± 0.14	1169.2 ± 1.1
293.15 K	789.553 ± 0.14	1160.6 ± 1.1
295.65 K	787.411 ± 0.14	1152 ± 1.1
298.15 K	785.261 ± 0.14	1143.5 ± 1.1
300.65 K	783.106 ± 0.14	1135 ± 1.1
303.15 K	780.944 ± 0.14	1126.5 ± 1.1
305.65 K	778.773 ± 0.14	1118.1 ± 1.1
308.15 K	776.593 ± 0.14	1109.7 ± 1.1
310.65 K	774.405 ± 0.14	1101.2 ± 1.1
313.15 K	772.204 ± 0.14	1092.8 ± 1.1
315.65 K	769.995 ± 0.14	1084.5 ± 1.1
318.15 K	767.77 ± 0.15	1076.2 ± 1.1
320.65 K	765.534 ± 0.15	1067.9 ± 1.1
323.15 K	763.296 ± 0.15	1059.6 ± 1.1

Source: the NIST ThermoML archive (doi:10.1016/j.jct.2011.01.014)
